In patent publication US20120022143A1, “RNA Interference Mediated Inhibition of the Thymic Stromal Lymphopoietin (TSLP) Gene Expression Using Short Interfering Nucliec Acid (siNA)” (Merck Sharp & Dohme Corp, priority 2009, published 2012):
[invAb] = inverted abasic unit; d = 2'-deoxy (DNA); m = 2'-O-methyl; r = 2'-OH (RNA); f = 2'-fluoro

What was measured:
mTSLP mRNA = assay: Initial screening: mouse TSLP mRNA knock-down by RT-PCR (Taqman) after RNAiMax transfection of NIH 3T3 cells; type: cell-based; conditions: 10 nM siNA, 24 hrs post-transfection, mean ± s.d., summary from 2 screens
Procedure: (§1) All cells were obtained from ATCC (Manassas, Va.) unless otherwise indicated. Cells were grown and transfected under standard conditions, which are detailed below for each cell line.
NIH 3T3 (murine; ATCC cat#CRL-1658): Cells were cultured at 37° C. in the presence of 5% CO2 and grown in Dulbecco's modified Eagle's medium (DMEM) with 4 mM L-glutamine adjusted to contain 1.5 g/L sodium bicarbonate and 4.5 g/L glucose and supplemented with fetal bovine serum at a final concentration of 10% and 100 μg/mL of streptomycin and 100 U/mL penicillin.
(§2) All transfections were performed using RNAiMax (Invitrogen Cat# 13778-150) as per the manufacturer's instructions.
(§3) Both human and murine cell lines were transfected in the similar fashion. Cells were plated in all wells of a tissue-culture treated, 96-well plate at a final count of 5,000 cells/well in […], of appropriate culture media. Cells were cultured for 24 hours after plating at 37° C. in the presence of 5% CO2.
(§4) After 24 hours, complexes containing siNA and RNAiMax were created as follows: A solution of RNAiMax diluted 33-fold in OPTI-MEM was prepared. In parallel, solutions of the siNAs for testing were prepared to a final concentration of 120 nM in OPTI-MEM. After incubation of RNAiMax/OPTI-MEM solution at room temperature for 5 min, an equal volume of the siNA solution and the RNAiMax solution were added together for each of the siNAs.
(§5) This solution was incubated at room temperature for 20 minutes. After incubation, 20 uL of the solution was added to each of the relevant wells.
(§6) The final concentration of siNA in each well was 10 nM and the final volume of RNAiMax in each well was 0.3 ul.
(§7) The time of incubation with the RNAiMax-siNA complexes was 24 hours, unless otherwise indicated. There was no change in media between the transfection and harvesting of the cells unless otherwise indicated.
(§8) RNA was extracted from a 96-well plate using the TaqMan® Gene Expression Cells-to-CT™ Kit (Cat# 4399002) with a modified protocol. Briefly, a 60 uL (1 plate) or 110 uL (2 plates) of the Lysis Solution with DNase I was dispensed into each well of the Lysis Buffer Plate (twin.tec full skirt plate). The lysis buffer and stop plates were stored at 4° C. until the cells were washed.
(§9) The plate was spun at 1100 rpm for 5 minutes. The culture medium was aspirated and discarded from the wells of the culture plate. The lysis was performed automatically using a BioMek FX instrument and method. After the Biomek method was completed, the lysis plate was incubated for 2 min. at room temperature. The lysis plate can be stored for 2 hours at 4° C., or at −20° C. or −80° C. for two months.
(§10) Each well of the reverse transcription plate required 10 uL of 2× reverse transcriptase Buffer, luL of 20× reverse transcription enzyme and 2 uL of nuclease-free water. The reverse transcription master mix was prepared by mixing 2× reverse transcription buffer, 20× reverse transcription enzyme mix, and nuclease-free water. 13 uL of the reverse transcription master mix was dispensed into each well of the reverse transcription plate (semi-skirted). A separate reverse transcription plate was prepared for each cell plate. The plate was loaded onto a Biomek NX or Biomek FX Dual-96 and the Biomek method was run. The program is programmed to automatically added 7 uL of lysate from the cell lysis procedure described above into each well of the reverse transcription plate. The plate is sealed and spun on a centrifuge (1000 rpm for 30 seconds) to settle the contents to the bottom of the reverse transcription plate. The plate is placed in a thermocycler at 37° C. for 60 min, 95° C. for 5 min, and 4° C. until the plate is removed from the thermocycler. Upon removal, if not used immediately, the plate was frozen at −20° C.
A series of probes and primers were used to detect the various mRNA transcripts of the genes of TSLP, IL-8 and GAPDH in human cell lines. […]

TSLP mRNA = assay: Initial screening: TSLP mRNA knock-down by RT-PCR (Taqman) after RNAiMax transfection of NHLF cells; type: cell-based; conditions: 10 nM siNA, human NHLF cells, 24 hrs post-transfection, relative to non-targeting control, normalized to GAPDH; mean ± s.d. from 2 experiments
Procedure: as §1
NHLF (human; Lonza cat# CC-2512): Cells were cultured at 37° C. in the presence of 5% CO2 and grown Fibroblast Basal Medium (Lonza cat# CC-3β2) supplemented growth factors (provided with the kit) and 100 μg/mL of streptomycin and 100 U/mL penicillin.
as §2, §3, §4, §5, §6, §7, §8, §9, §10
A series of probes and primers were used to detect the various mRNA transcripts of the genes of TSLP, IL-8 and GAPDH in human cell lines. All the Taqman probes and primers for the experiments here-in described were supplied as pre-validated sets by Applied Biosystems, Inc. (see Table 2). […]

Substance | % KD mTSLP NIH3T3 (mTSLP mRNA) [%] | % KD TSLP (TSLP mRNA)
25459-DC: siNA duplex: sense B uGcccAGGcuAcccuGAAA TTB (SEQ ID NO: 101), antisense UUUcAGGGuAGccuGGGcAUU (SEQ ID NO: 102) (sense UGCCCAGGCUACCCUGAAATT; antisense UUUCAGGGUAGCCUGGGCAUU; sense: DNA at AGT, 2'-fluoro at CU, [invAb] at 5' end, 3' end, backbone not given here; antisense: sugars from the 5' end rrrfmmmmfmmfffmmmfmmm, backbone not given here) | 15.7 ± 1.6 | −6 ± 27^ %
25460-DC: siNA duplex: sense B GucuGAAucAAAccucACA TTB (SEQ ID NO: 103), antisense UGUGAGGuuuGAuucAGAcUU (SEQ ID NO: 104) (sense GUCUGAAUCAAACCUCACATT; antisense UGUGAGGUUUGAUUCAGACUU; sense: sugars from the 5' end dfffdddffdddffffddddd, [invAb] at 5' end, 3' end, backbone not given here; antisense: sugars from the 5' end rrrmmmmfffmmfffmmmfmm, backbone not given here) | 40.8 ± 1.4 | −7 ± 10.7%
25461-DC: siNA duplex: sense B GGGcuAAcuuAcAAcuuuu TTB (SEQ ID NO: 105), antisense AAAAGuuGuAAGuuAGcccUU (SEQ ID NO: 106) (sense GGGCUAACUUACAACUUUUTT; antisense AAAAGUUGUAAGUUAGCCCUU; sense: DNA at AGT, 2'-fluoro at CU, [invAb] at 5' end, 3' end, backbone not given here; antisense: sugars from the 5' end rrrmmffmfmmmffmmfffmm, backbone not given here) | −17.2 ± 3.6 | −48 ± 56.1%
25462-DC: siNA duplex: sense B GGGcuAAGuucGAGcAAAu TTB (SEQ ID NO: 107), antisense AUUuGcucGAAcuuAGcccUU (SEQ ID NO: 108) (sense GGGCUAAGUUCGAGCAAAUTT; antisense AUUUGCUCGAACUUAGCCCUU; sense: DNA at AGT, 2'-fluoro at CU, [invAb] at 5' end, 3' end, backbone not given here; antisense: sugars from the 5' end rrrfmfffmmmfffmmfffmm, backbone not given here) | −9.5 ± 28.7 | 23 ± 16.4%
25463-DC: siNA duplex: sense B cGAGuAuuAuAcucucAAu TTB (SEQ ID NO: 109), antisense AUUGAGAGuAuAAuAcucGUU (SEQ ID NO: 110) (sense CGAGUAUUAUACUCUCAAUTT; antisense AUUGAGAGUAUAAUACUCGUU; sense: DNA at AGT, 2'-fluoro at CU, [invAb] at 5' end, 3' end, backbone not given here; antisense: sugars from the 5' end rrrmmmmmfmfmmfmfffmmm, backbone not given here) | 41.5 ± 1.4 | 19 ± 33.3%
25464-DC: siNA duplex: sense B ccAGAAuAAAAuuAGcuuu TTB (SEQ ID NO: 111), antisense AAAGcuAAuuuuAuucuGGUU (SEQ ID NO: 112) (sense CCAGAAUAAAAUUAGCUUUTT; antisense AAAGCUAAUUUUAUUCUGGUU; sense: DNA at AGT, 2'-fluoro at CU, [invAb] at 5' end, 3' end, backbone not given here; antisense: sugars from the 5' end rrrmffmmffffmffffmmmm, backbone not given here) | 89.2 ± 1.1 | 3 ± 39%
25465-DC: siNA duplex: sense B cuGcuAuGAAAAucucuAu TTB (SEQ ID NO: 113), antisense AUAGAGAuuuucAuaGcAGUU (SEQ ID NO: 114) (sense CUGCUAUGAAAAUCUCUAUTT; antisense AUAGAGAUUUUCAUAGCAGUU; sense: DNA at AGT, 2'-fluoro at CU, [invAb] at 5' end, 3' end, backbone not given here; antisense: RNA at 1, 2, 3, 2'-O-methyl at 4, 5, 6, 7, 13, 16, 18, 19, 20, 21, 2'-fluoro at 8, 9, 10, 11, 12, 14, 17, other sugars and backbone not given here) | 48.6 ± 2.2 | 23 ± 4.8%
25466-DC: siNA duplex: sense B cAGAAGGGAuucuuAAcuu TTB (SEQ ID NO: 115), antisense AAGuuAAGAAucccuucuGUU (SEQ ID NO: 116) (sense CAGAAGGGAUUCUUAACUUTT; antisense AAGUUAAGAAUCCCUUCUGUU; sense: DNA at AGT, 2'-fluoro at CU, [invAb] at 5' end, 3' end, backbone not given here; antisense: sugars from the 5' end r3 f2 m5 f8 m3, backbone not given here) | −17.8 ± 28.5 | 38 ± 25^ %
25467-DC: siNA duplex: sense B cAAGAGccuuGcAcAucuA TTB (SEQ ID NO: 117), antisense UAGAuGuGcAAGGcucuuGUU (SEQ ID NO: 118) (sense CAAGAGCCUUGCACAUCUATT; antisense UAGAUGUGCAAGGCUCUUGUU; sense: DNA at AGT, 2'-fluoro at CU, [invAb] at 5' end, 3' end, backbone not given here; antisense: sugars from the 5' end rrrmfmfmfmmmmfffffmmm, backbone not given here) | −31 ± 7.4 | −13 ± 31.7%
25468-DC: siNA duplex: sense B uGcuGAAuAAAGuAAuucu TTB (SEQ ID NO: 119), antisense AGAAuuAcuuuAuucAGcAUU (SEQ ID NO: 120) (sense UGCUGAAUAAAGUAAUUCUTT; antisense AGAAUUACUUUAUUCAGCAUU; sense: DNA at AGT, 2'-fluoro at CU, [invAb] at 5' end, 3' end, backbone not given here; antisense: sugars from the 5' end rrrmffmffffmfffmmfmmm, backbone not given here) | 32.2 ± 15.2 | 30 ± 12.9%
25469-DC: siNA duplex: sense B AAAuGGGAAAuGAGcAAuA TTB (SEQ ID NO: 121), antisense UAUuGcucAuuucccAuuuUU (SEQ ID NO: 122) (sense AAAUGGGAAAUGAGCAAUATT; antisense UAUUGCUCAUUUCCCAUUUUU; sense: DNA at AGT, 2'-fluoro at CU, [invAb] at 5' end, 3' end, backbone not given here; antisense: sugars from the 5' end rrrfmfffmffffffmfffmm, backbone not given here) | −17.2 ± 17.9 | −1 ± 18.8%
